The values below come from BindingDB's records for doi:10.7270/Q2805129 (Vanderbilt Screening Center For Gpcrs, Ion Channels and …, 2009).

Usually Ki stands for the dissociation constant of the complex between target and ligand, obtained from inhibition or displacement.

The target in this assay is T1, Muscarinic acetylcholine receptor M5 (Homo sapiens, UniProt P08912).
T1 sequence (P08912 whole entry): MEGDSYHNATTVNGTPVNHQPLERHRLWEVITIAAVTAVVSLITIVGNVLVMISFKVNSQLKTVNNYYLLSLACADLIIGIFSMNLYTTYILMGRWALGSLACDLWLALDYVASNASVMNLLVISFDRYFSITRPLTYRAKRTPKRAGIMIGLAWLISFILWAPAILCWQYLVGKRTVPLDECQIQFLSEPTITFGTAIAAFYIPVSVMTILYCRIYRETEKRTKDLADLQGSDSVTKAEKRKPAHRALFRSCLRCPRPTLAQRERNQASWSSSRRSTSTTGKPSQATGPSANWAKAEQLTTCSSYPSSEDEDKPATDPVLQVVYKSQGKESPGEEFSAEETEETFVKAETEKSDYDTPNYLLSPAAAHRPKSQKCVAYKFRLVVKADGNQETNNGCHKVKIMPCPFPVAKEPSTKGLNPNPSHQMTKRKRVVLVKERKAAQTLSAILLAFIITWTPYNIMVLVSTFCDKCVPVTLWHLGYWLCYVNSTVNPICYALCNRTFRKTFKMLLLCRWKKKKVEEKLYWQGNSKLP
Kind of assay: compound effect on ACh competition at M5, biochemical, [3H]N-methylscopolamine, acetylcholine (AID 2194).

Regarding `COc1ccc(CN2C(=O)C(=O)c3cc(OC(F)(F)F)ccc32)cc1` [VU0238429], the inhibitory constant (Ki) came out at 159 nM.
